The test system of data set [1] is MDA-MB-231, HCT116, A549 and Panc1 cell lines. Kind of data set: Detailed growth inhibition studies, median effect dose. It counts as cell-based. To be noted: Homo sapiens, 72 h, read-out: median effect dose (Dm), growth inhibitory activity. How it is done: Cell were maintained in standard tissue culture media (RPMI1640, +10% fetal bovine serum, plus antibiotic) and grown in a standard humidified 5% CO2 incubator at 37° C. […] For moderate throughput screening (up to 120 drugs per experiment), cells were seeded into 96 well plates and allowed to attach overnight. The following day media was removed and replaced with fresh compound containing media. Each compound was tested against both cell lines at 3 concentrations; 1 μM, 10 μM and 50 μM, in duplicate. Cells were incubated with compound containing media for three days in a standard 5% CO2 tissue culture incubator. Cell growth was assessed after 3 days using the DNA dye binding assay, as originally described by LaBarca and Paigen. Relative growth was independently calculated for each cell line, based on DNA content from corresponding cells grown in control media plus diluent (DMSO). […] The following day media was removed and replaced with drug containing media.
Over 190 compounds were screened for their ability to inhibit growth and/or induce cell death in established cancer cell lines.

A further data set concerns MDA-231. Kind of data set: Time dependence of growth inhibitory activity, MDA-231. It is filed as cell-based. The note with it: Homo sapiens, MDA-MB-231. The protocol:
(§1) The growth inhibition assay was performed in the Preclinical Drug Testing Laboratory of the Case Comprehensive Cancer Center using a standardized protocol. Cell lines (human colon cancer HCT116 and human breast cancer MDA-MB-231 cells) were maintained in standard growth media; RPMI1640+10% FBS+2 mM glutamine+100U/ml penicillin, 100 ug/ml streptomycin and shown to be negative for mycoplasma contamination using the MycoAlert™ Mycoplasma Detection kit (Lonza, Basel, Switzerland). Cell identity was verified by Short Tandem Repeat (STR) testing performed using the Promega StemElite kit, in the Genetic Resources Core Facility (GRCF) at Johns Hopkins University.
(§2) For growth inhibition assays, cells were harvested by trypsinization and seeded into 96-well tissue culture plates at 2500 cells/mL. The following day an equal volume of 2×-drug containing medium was added to each well. […] Cell growth was assessed by measuring DNA content per well using the method of Labarca and Paigen. Dye fluorescence was measured in a Perkin-Elmer 1420 Victor3 Multilabel plate reader using 355 nm excitation and 460 nm emission.

The next data set deals with HCT116. Kind of data set: Time dependence of growth inhibitory activity, HCT116. It counts as cell-based. The note with it: Homo sapiens, HCT-116. How it is done:
as §1, §2

Another data set deals with Panc1. Kind of data set: Time dependence of growth inhibitory activity, Panc1. It counts as cell-based. To be noted: Homo sapiens, PANC-1.
For a further data set, the system named is MDA-MB-231. Kind of data set: Combination experiment: gemcitabine with sublethal compound 2. The note with it: Homo sapiens, MDA-MB-231, read-out: Dm, Gemcitabine alone.
The test system of data set [2] is MDA-MB-231 and HCT-116 cell lines. Kind of data set: Growth inhibition screening assay (In Cell IC50). To be noted: Homo sapiens, 72 h; 3 days with compound. It counts as cell-based, human. How it is done:
(§3) Cell were maintained in standard tissue culture media (RPMI1640, +10% fetal bovine serum, plus antibiotic) and grown in a standard humidified 5% CO2 incubator at 37° C. Cells were regularly tested using the MycoAlert detection kit (Lonza Biologics) and shown to be mycoplasma-free. Initial compound screening was performed using both MDA-MB-23 land HCT-116 cell lines. For moderate throughput screening (up to 120 drugs per experiment), cells were seeded into 96 well plates and allowed to attach overnight. The following day media was removed and replaced with fresh compound containing media. Each compound was tested against both cell lines at 3 concentrations; 1 μM, 10 μM and 50 μM, in duplicate. Cells were incubated with compound containing media for three days in a standard 5% CO2 tissue culture incubator. Cell growth was assessed after 3 days using the DNA dye binding assay, as originally described by LaBarca and Paigen. Relative growth was independently calculated for each cell line, based on DNA content from corresponding cells grown in control media plus diluent (DMSO). Additional growth inhibition experiments utilized either the DNA binding assay or the Promega CellTiter 96® (MTT reduction) assay, with similar results. For detailed growth inhibition assays, cells (1500-2500 depending on the growth characteristics of the cell line) were seeded in standard 96 well tissue culture plates and allowed to attach overnight. The following day media was removed and replaced with drug containing media. Each dose group consisted of 5 replicate wells, and results are reported a Relative Growth, calculated as DNA or MTT reduction per well, divided by the signal from untreated cells, both harvested 3 days after drug administration.

A further data set deals with select cancer cell lines. Kind of data set: Cellular IC50 of NSAAH library (Table 3). It counts as cell-based. How it is done: as §3
Data set [3] in a line: Metal chelation by UV spectroscopy titration, Mg2+. It is filed as physicochemical. To be noted: 100 μM ligand, 10 mM ammonium acetate pH 7.0, metal 100 μM to 1 mM. The text has this: There have been multiple reports of small molecule agents inhibiting RR through the scavenging of free radicals that are required for the reduction of nucleotide diphosphates. Nitric oxide and hydroxyurea (that quench the tyrosyl free radicals), and iron chelating small molecules such as desferrioxamine (that irreversibly chelate to Fe-(II) that is essential for -housing the free radicals) are a few examples. […] Therefore to test this hypothesis, the propensity of NSAAH-E-3A to bind to Mg^2+ and Fe^2+ (both present in the inhibition assay previously described) was determined by UV spectroscopy. In 10 mM ammonium acetate buffer (pH 7.0), a 100 μM solution of NSAAH-E-3A was titrated against FeCl2.6H2O and MgCl2.6H2O idependently at varying concentrations of metal ranging from 100 μM to 1 mM. The stoichiometry of NSAAH-E-3A : M^2+ tested were 1:1, 1:2, 1:3, 1:4, 1:5, 1:6, 1:7, 1:8, 1:9, and 1:10. A scanning UV […] spectrum was recorded between 200-800 nm at each concentration. Noticeable changes occurred -when NSAAH-E-3A was subjected to a titration with FeCl2.6H2O at concentrations of metal ranging from 600 μM to 1 mM. […] Similarly, a titration experiment was carried against Mg^2+ salt at concentrations of metal ranging from 100 μM to 1 mM at stoichiometry of 1:1, 1:2, 1:3, 1:4, 1:5, 1:6, 1:7, 1:8, 1:9, and 1:10.

For data set [4], the system named is normal mobilized peripheral blood progenitor cells. Kind of data set: Blood progenitor colony forming unit (CFU) assay. It counts as cell-based, human. The note with it: 14 days. The protocol: The CFU assay was performed in the Hematopoietic Biorepository and Cellular Therapy Core Facility of the Case Comprehensive Cancer Center using a standardized protocol.
Briefly, mobilized peripheral blood mononuclear cells were collected from healthy donors by apheresis after Neupogen stimulation under University Hospitals IRB Protocol #09-90-195. Excess discarded cells were diluted to 1(10^6) cells/mL in RPMI1640+15% fetal bovine serum, 100 U/mL penicillin, 100 μg/mL streptomycin and 50.4 units/ml GM-CSF. Drug solution was added to the cell suspension and 9× volume of complete methylcellulose (Methocult H4434+50 μM hemin.). The methylcellulose/cell suspension was aliquoted into triplicate 35-mm gridded tissue culture plates and incubated in a humidified 5% CO2 incubator at 37° C. for 14 days. Plates were counted visually and clusters of >50 cells were scored as surviving colonies.

In a further data set the target is T1, RR (Homo sapiens, UniProt P23921).
T1 construct: endogenous in cells; host or cells: established human cancer cell lines (MDA-MB-231, HCT-116; also A549, Panc1)
T1 sequence (P23921 1-792): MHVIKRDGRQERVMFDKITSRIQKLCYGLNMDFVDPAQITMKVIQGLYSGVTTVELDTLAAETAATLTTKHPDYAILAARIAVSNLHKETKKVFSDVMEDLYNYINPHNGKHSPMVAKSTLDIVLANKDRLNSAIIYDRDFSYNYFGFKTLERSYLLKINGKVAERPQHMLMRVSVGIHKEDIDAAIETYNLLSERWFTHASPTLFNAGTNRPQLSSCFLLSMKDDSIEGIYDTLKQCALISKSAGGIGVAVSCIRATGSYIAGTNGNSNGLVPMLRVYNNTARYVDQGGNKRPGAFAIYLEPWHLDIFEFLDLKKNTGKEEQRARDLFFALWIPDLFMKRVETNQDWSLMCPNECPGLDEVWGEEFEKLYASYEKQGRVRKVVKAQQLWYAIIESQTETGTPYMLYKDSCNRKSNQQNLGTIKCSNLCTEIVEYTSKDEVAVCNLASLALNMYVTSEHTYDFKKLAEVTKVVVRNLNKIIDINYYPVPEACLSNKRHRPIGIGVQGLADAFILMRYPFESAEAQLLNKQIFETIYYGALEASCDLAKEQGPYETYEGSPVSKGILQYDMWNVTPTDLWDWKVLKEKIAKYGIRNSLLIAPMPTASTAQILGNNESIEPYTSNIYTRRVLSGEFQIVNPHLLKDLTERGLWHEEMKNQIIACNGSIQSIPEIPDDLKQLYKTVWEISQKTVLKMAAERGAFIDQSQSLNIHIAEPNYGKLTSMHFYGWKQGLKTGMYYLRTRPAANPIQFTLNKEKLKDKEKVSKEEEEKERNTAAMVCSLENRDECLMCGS
T1 sequence (P31350 1-389 partner): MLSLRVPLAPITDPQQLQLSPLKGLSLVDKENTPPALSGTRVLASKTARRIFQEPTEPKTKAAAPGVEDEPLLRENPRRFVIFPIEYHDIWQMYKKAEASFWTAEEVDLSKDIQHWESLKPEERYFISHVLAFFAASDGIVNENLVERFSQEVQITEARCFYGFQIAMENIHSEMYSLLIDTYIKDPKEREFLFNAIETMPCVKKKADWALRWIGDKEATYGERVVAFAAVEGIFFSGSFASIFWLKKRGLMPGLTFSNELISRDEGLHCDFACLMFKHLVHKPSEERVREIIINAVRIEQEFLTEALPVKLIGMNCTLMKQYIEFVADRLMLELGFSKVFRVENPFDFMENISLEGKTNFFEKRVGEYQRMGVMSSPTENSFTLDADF
Kind of data set: In Vivo RR IC50 (Table 2). It is filed as cell-based. To be noted: In Vivo RR IC50^b (μM).

In the next data set the target is T2, hRR (hRRM1 and hRRM2) (Homo sapiens, UniProt P23921).
T2 sequence (P23921 1-792): T1 sequence (P23921 1-792)
T2 sequence (P31350 1-389 partner): T1 sequence (P31350 1-389 partner)
Kind of data set: biochemical.

Read-outs that look alike come from different tables or passages of the source.

Protocol for hRR (hRRM1 and hRRM2): The buffer solution (50 mM HEPES at pH 7.6, 5% (v/v) glycerol, 0.1M KCl) and the hRRM2 protein in the buffer solution were prepared under deoxygenated conditions. Both solutions were taken into the glove box and FeNH4SO4 was dissolved in the buffer solution. 5 equivalents of Fe (II) per hRRM2 dimer from FeNH4SO4 (determined by Ferrozine assay) was added to the protein solution and incubated at 4° C. in the glove box. Upon removal of the protein from the glove box, freshly prepared O2-saturated buffer solution (50 mM HEPES at pH 7.6, 5% (v/v) glycerol, 0.1M KCl) was added. Excess iron was removed by S200 10/300 size exclusion chromatography. […] The reaction mixture was pre-incubated for 3 min at 37° C., and 30 μL aliquots were sampled at fixed time intervals after initiating the reaction. Reactions were quenched by immersion in a boiling water bath, cooling, and treatment with alkaline phosphatase. The product ^14-dADP that formed during the reaction was separated from substrate-ADP using boronate affinity chromatography. ^14-dADP was quantified by liquid scintillation counting using a Beckman LS6500 liquid scintillation counter.
Briefly, boronate chromatography was used to separate the product.

Turning to `Nc1ccn([C@@H]2O[C@H](CO)[C@@H](O)C2(F)F)c(=O)n1` [Gemcitabine, reference compound], the IC50 in [1] (set of four cell lines, 3 days) was 500 to 1000 nM; in the data set with MDA-231 (MDA-231, Drug Exposure 2 hr) it was 1930 nM; with MDA-231 (MDA-231, Drug Exposure 6 hr), 1540 nM; in the data set on MDA-231 (MDA-231, Drug Exposure 24 hr), 274 nM; in the data set on MDA-231 (MDA-231, Drug Exposure 72 hr) it was 100 nM; in the data set on HCT116 (HCT116, Drug Exposure 2 hr), 487 nM. The IC50 amounted to 343 nM with HCT116 (HCT116, Drug Exposure 6 hr); 58 nM in the data set with HCT116 (HCT116, Drug Exposure 24 hr); 30 nM in the data set with HCT116 (HCT116, Drug Exposure 72 hr); 680 nM in the data set with Panc1 (Panc1, Drug Exposure 2 hr); 406 nM in the data set on Panc1 (Panc1, Drug Exposure 6 hr); 84 nM with Panc1 (Panc1, Drug Exposure 24 hr). Besides, the IC50 with Panc1 (Panc1, Drug Exposure 72 hr) amounted to 46 nM; with MDA-MB-231, 920 nM.
On to `O=C(N/N=C/c1c(O)ccc2ccccc12)c1ccccc1O` [compound 3, (E)-2-hydroxy-N′-((2-hydroxynaphthalenyl)methylene) benzohydrazide], for which the IC50 is 380 nM in data set [2]; 500 to 1000 nM in data set [1]; 0.225 nM in the data set with select cancer cell lines; more than 10000 nM with MDA-231 (MDA-231, Drug Exposure 2 hr); more than 10000 nM with MDA-231 (MDA-231, Drug Exposure 6 hr); 658 nM with MDA-231 (MDA-231, Drug Exposure 24 hr). The IC50 is 498 nM in the data set with MDA-231 (MDA-231, Drug Exposure 72 hr); more than 10000 nM in the data set on HCT116 (HCT116, Drug Exposure 2 hr); more than 10000 nM with HCT116 (HCT116, Drug Exposure 6 hr); 572 nM in the data set with HCT116 (HCT116, Drug Exposure 24 hr); 221 nM in the data set with HCT116 (HCT116, Drug Exposure 72 hr); more than 10000 nM in the data set on Panc1 (Panc1, Drug Exposure 2 hr). Also, the IC50 with Panc1 (Panc1, Drug Exposure 6 hr) was more than 10000 nM; with Panc1 (Panc1, Drug Exposure 24 hr), 898 nM; with Panc1 (Panc1, Drug Exposure 72 hr), 442 nM. Further, the “ligand:Mg^2+ stoichiometry at which the UV spectrum shows binding” value in data set [3] was “no noticeable change”. Moreover, in data set [4], the “cytotoxicity against normal blood progenitor cells” value is “little measurable cytotoxicity”.
Regarding `O=C(CCCCCCCCC(=O)N/N=C/c1c(O)ccc2ccccc12)N/N=C/c1c(O)ccc2ccccc12` [compound 4, N′1,N′10-bis((E)-(2-hydroxynaphthalenyl)methylene) decanedihydrazide], the IC50 is 60 to 2000 nM in data set [2]; 1000 to 10000 nM in data set [1] (set of four cell lines, 3 days); 0.674 µM at RR (1 μM, sub-column 1 μM); 0.792 µM against RR (10 μM, sub-column 10 μM); 39800 ± 900 nM on hRR (hRRM1 and hRRM2).
